The target in assay [1] is T1, aromatase (Homo sapiens, UniProt P11511).
T1 construct: A microsomal fraction is prepared from human placenta by the method essentially as described by Thompson and Siiteri; from tissue; host or cells: human placenta, microsomal fraction (lyophilized)
T1 sequence (P11511 1-503): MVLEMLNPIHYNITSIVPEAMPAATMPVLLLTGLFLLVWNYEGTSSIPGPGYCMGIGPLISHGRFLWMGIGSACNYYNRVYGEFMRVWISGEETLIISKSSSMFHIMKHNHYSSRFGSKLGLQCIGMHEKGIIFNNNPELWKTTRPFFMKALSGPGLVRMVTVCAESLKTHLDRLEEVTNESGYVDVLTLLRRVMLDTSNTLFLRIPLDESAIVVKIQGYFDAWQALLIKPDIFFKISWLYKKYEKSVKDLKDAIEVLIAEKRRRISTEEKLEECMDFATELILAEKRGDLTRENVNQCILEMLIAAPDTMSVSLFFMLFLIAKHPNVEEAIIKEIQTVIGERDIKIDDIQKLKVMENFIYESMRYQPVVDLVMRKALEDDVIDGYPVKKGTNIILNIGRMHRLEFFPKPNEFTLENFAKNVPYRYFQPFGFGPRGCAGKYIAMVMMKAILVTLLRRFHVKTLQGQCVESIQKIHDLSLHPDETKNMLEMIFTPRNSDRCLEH
The assay can be described thus: in vitro inhibition of aromatase activity (human placental microsomes, aromatization of [1,2-^3 H]-androstenedione). Conditions: 20 minutes at 37° C. In kind it is biochemical. The method, then: The microsomal preparation so obtained is lyophilized and stored at -40° C.
The assay is conducted substantially as described by Thompson and Siiteri. The human placental microsomes are added to [1,2-^3 H]-androstenedioneand incubated for 20 minutes at 37° C. The amount of aromatization of the labelled substrate is detected by the […] of ^3 H2 O into the incubation medium. The substrate is removed by chloroform extraction, followed by adsorption to charcoal in suspension. The charcoal is removed by centrifugation and the steroid-free medium is counted in a liquid scintillation counter. Compounds are tested for aromatase inhibitory activity by adding them to the incubation medium prior to the addition of the microsomes. The relative cpm obtained with and without the inhibitor is used to calculate the percent inhibition of the aromatization of androstenedione to estrone.

The test system of assay [2] is estrogen synthesis. Put plainly: in vivo inhibition of aromatase activity: inhibition of estrogen synthesis in rats (ovarian estrogen content). Conditions: po, female rat, PMS/hCG and androstenedione treated; read-out: dose at which estrogen synthesis is inhibited. The method, then:
Twenty-one-day-old female rats are injected subcutaneously with 10 IU pregnant mare serum gonadotropin (PMS). Two days later the same rats are injected subcutaneously with 30 IU human chorionic gonadrotropin (hCG). On the day following the hCG treatment the rats are injected subcutaneously with either propylene glycol (0.2 ml; […].) or with various doses of the test compound. […] Four hours after the injection of androstenedione the rats are sacrificed and their ovaries removed and trimmed free of adhering tissue and stored in pairs at -40° C. To determine the total estrogen content of the ovaries, 1.5 ml of 0.05M aqueous potassium phosphate buffer, pH 7.4, and 0.2 ml of 0.1N aqueous sodium hydroxide are added to the tissues which are then homogenized. The homogenate is extracted with 15 ml of diethyl ether, 5 ml aliquots are radioimmunoassayed with antiserum having 100% cross reactivity with estrone, estradiol and estriol. The ovarian estrogen content is expressed as ng estrogen/pair of ovaries. The inhibition of estrogen synthesis, indicative of aromatase inhibition, is calculated from the ovarian estrogen content in treated as compared to control animals.

Assay [3] relates to female dogs. Put plainly: cessation of proestrus and estrus in female dogs treated from proestrus. It is filed as in vivo, dog. The source says: (§1) Proestrus, for example in the bitch, commences with a vaginal discharge, followed by attraction of the male resulting from estrogen secretion and lasts on an average of 9 days. The females only permit mating during estrus. The compounds of the present invention, when administered to female dogs e.g. on the second day of proestrus, terminate all physical signs of proestrus andestrus and mating will be prevented.
(§2) For example, ten mature beagles during anestrus with known breeding histories were administered e.g. 10.0 mg/kg p.o. daily of the compound of example 46 for 224 days. […] Ten female beagles with known breeding histories were administered 10.0 mg/kg p.o. daily of the compound of example 46 for 91 days beginning on the first day proestrus was noted.

In assay [4] the test system is female dogs. The assay can be described thus: prevention of proestrus and estrus in female dogs treated during anestrus. Conditions: 10.0 mg/kg p.o. daily for 224 days, ten mature beagles during anestrus; controls exhibited proestrus and estrus at least once. In kind it is in vivo, dog.
Source text: as §1, §2

Assay [5] relates to dimethylbenzanthracene (DMBA)-induced mammary tumors. Put plainly: antitumor activity in DMBA-induced mammary tumors in rats. In kind it is in vivo, female Sprague-Dawley rats. Conditions: Rattus norvegicus, po, read-out: effective daily dose (antitumor). The source says: Exp. Biol. Med. 160, 296-301 (1979)].
Assay [6] concerns female rats. Put plainly: in vivo antifertility property (implantation and/or fetal resorption) in rats. Further details: species or system rat (Sprague Dawley). The following applies: Rattus norvegicus, po, administered as the fumarate or hemisuccinate salt, read-out: dose at which fertility is inhibited. Here is the method: Mated female rats (Sprague Dawley) weighing approximately 180-200 g were obtained on the day of coitus. The presence of sperm in the vagina was used as a verification that mating had occurred. On the day of receipt, day of coitus or day 0 of `pregnancy`, the rats are divided into two groups of six to eight rats per group. One group is given various doses of the test compound p.o., suspended in 0.2 ml of carboxymethylcellulose (CMC) beginning on day 1 of `pregnancy` and continuing through day 9 of `pregnancy`. These same rats receive a daily injection of 0.1 ml of sesame oil s.c. over this same time frame. The second group of rats receive the vehicles, CMC p.o. and oil s.c., on days 1-9 of `pregnancy`. All of the rats are sacrificed on day 12 or 13 of `pregnancy`, and their uteri are exposed and examined for fetuses and/or resorption sites.

These results are taken from patent publication US5112845A, “Alpha-heterocycle substituted tolunitriles” (Ciba-Geigy Corporation, priority 1990, dated 1992).

Where a name gives a salt, the structure may show the parent alone. Read-outs that look alike come from different tables or passages of the source.

Consider `N#Cc1ccc(CC(c2ccc(C#N)cc2)n2ccnc2)cc1` (stereo not drawn) [Example 11f, 4-[alpha-(4-cyanobenzyl)-1-imidazolylmethyl]benzonitrile], for which, in assay [1], the half-inhibitory concentration (IC50) was ~3 nM. For the same molecule, in assay [2], the minimal effective dose is ~3 µg/kg.

For the molecule `N#Cc1ccc(C(c2cccnc2)n2ccnc2)cc1` (stereo not drawn) [Example 46, sulfate salt of 4-[alpha-(3-pyridyl)-1-imidazolylmethyl]benzonitrile], the signs of proestrus result is “All signs of proestrus disappeared” in assay [3] (10.0 mg/kg p.o. daily for 91 days beginning on first day of proestrus, ten female beagles) and “No signs of proestrus were observed” in assay [4]. Also, in assay [3] (10.0 mg/kg p.o. daily for 91 days, ten female beagles, male presented 9 and 11 days later), the “acceptance of a male” value is given as “no dogs accepted a male”. In assay [3] (10.0 mg/kg p.o. daily, remainder of the 91 days, ten female beagles), the “proestrus during remainder of treatment” value is on record as “Proestrus was not observed”. Also, in assay [3] (10.0 mg/kg p.o. daily, 9 and 11 days following the initial sign of proestrus), the “acceptance of a male dog” value is on record as “refused to accept a male dog”. For the same molecule, the “dogs exhibiting estrus during recovery” value in assay [3] (190 days recovery period after 91 days at 10.0 mg/kg p.o. daily) was “eight of ten dogs exhibited estrus”.

As for `N#Cc1ccc(C(c2ccc(C#N)cc2)n2cncn2)cc1` [Example 20a, 4-[alpha-(4-cyanophenyl)-1-(1,2,4-triazolyl)-methyl]benzonitrile], in assay [5] (daily, p.o., rats, DMBA-induced mammary tumors), the minimal effective dose was ~0.03 mg/kg/day.

Consider `N#Cc1ccc(C(c2cccnc2)n2ccnc2)cc1` (stereo not drawn) [Example 5e, 4-[alpha-(3-pyridyl)-1-imidazolylmethyl]-benzonitrile], for which the IC50 in assay [1] is ~16 nM. Moreover, the minimal effective dose in assay [2] is ~3 µg/kg.

As for `N#Cc1ccc(C(c2ccc(C#N)cc2)n2ccnc2)cc1` [Example 2a, 4-[alpha-(4-cyanophenyl)-1-imidazolylmethyl]-benzonitrile], the figures for the minimal effective dose in assay [5] and in assay [6] were ~0.1 mg/kg/day and ~4000 µg/kg, respectively.

By IC50 is commonly meant the concentration that gives 50% inhibition.
